The test system of experiment [1] is Plasmodium falciparum. In words: ST_JUDE: Plasmodium falciparum K1 EC50 (uM) as measured by SYBR green dye. The class given is functional, organism-based.
The subject of experiment [2] is Plasmodium falciparum. Nature of the experiment: ST_JUDE: Plasmodium falciparum 3D7 EC50 (uM) as measured by SYBR green dye. It is filed as functional, organism-based.

Where only a bound is given, the exact number is not on record here.

EC50 data for 52 compounds are collected here from ChEMBL document CHEMBL1154198, “Chemical genetics of Plasmodium falciparum” (Nature, 2010).

The EC50 is the concentration needed to bring the measured effect to its halfway point. The low end stands for a more potent agent, the high end for a less potent agent. As to `Cc1ccc(Nc2nc(NCc3ccccc3)c3ccccc3n2)cc1`, the EC50 with Plasmodium falciparum [1] worked out at 3.6 µM; in the experiment with Plasmodium falciparum [2], 0.754 µM.

Turning to `CCCC(=O)NC(c1cccc([N+](=O)[O-])c1)c1ccc2cccnc2c1O` (centres undefined), the EC50 was 2.48 µM with Plasmodium falciparum [1] and 2.88 µM in the experiment on Plasmodium falciparum [2].

Take `Oc1ccccc1/C=N\c1ccc(-c2nc3cc(-c4ccc5[nH]c(-c6ccc(/N=C\c7ccccc7O)cc6)nc5c4)ccc3[nH]2)cc1`: the EC50 with Plasmodium falciparum [1] is 0.151 µM; in the experiment with Plasmodium falciparum [2], 0.207 µM.

With `CCC1(C)CC(CCNCc2ccc(F)cc2)(c2ccc(C)cc2)CCO1` (centres undefined), the EC50 in the experiment with Plasmodium falciparum [1] is 0.974 µM; in the experiment on Plasmodium falciparum [2], 1.11 µM.

In the case of `Cc1ccc(C)c(C(C)NC(=S)Nc2ccc([N+](=O)[O-])cc2)c1` (centres undefined), the EC50 in the experiment with Plasmodium falciparum [1] is 3.36 µM; with Plasmodium falciparum [2], above 15 µM.

For the compound `CC(=O)c1c(C(C)=O)c(C)n(Cc2ccc(Cl)cc2)c1C`, the EC50 was 6.63 µM in the experiment on Plasmodium falciparum [1] and above 15 µM in the experiment on Plasmodium falciparum [2].

As for `COc1cc(SC)ccc1C(=O)N1CCCC(C)C1` (centres undefined), the EC50 in the experiment on Plasmodium falciparum [1] is above 15 µM; in the experiment with Plasmodium falciparum [2] it was 9.81 µM.

On to `O=[N+]([O-])c1ccc(O)c(-c2cc(C(F)(F)F)nc(-c3ccccc3)n2)c1`, for which the EC50 was 3.25 µM in the experiment with Plasmodium falciparum [1] and 1.75 µM in the experiment on Plasmodium falciparum [2].

Turning to `CCCCCN1COc2ccc3c4c(c(=O)oc3c2C1)CCCC4`, the results for the EC50 in the experiment with Plasmodium falciparum [1] and in the experiment with Plasmodium falciparum [2] were 0.822 µM and 1.69 µM, respectively.

For `CCN(CC)c1cc(C)c2cc(NC(=O)c3ccc(F)cc3)ccc2n1`, the EC50 with Plasmodium falciparum [1] and in the experiment with Plasmodium falciparum [2] was above 15 µM throughout.

For the compound `CCCCCCc1cc(O)c2c(C)cc(=O)oc2c1`, the EC50 in the experiment on Plasmodium falciparum [1] is 4.15 µM; with Plasmodium falciparum [2], above 15 µM.

On to `CCCc1cc(O)nc(-n2nc(C)cc2NC(=O)c2ccc(C)cc2)n1`, for which the EC50 in the experiment with Plasmodium falciparum [1] and with Plasmodium falciparum [2] was above 15 µM throughout.

For `CSc1nc(N)c2c(n1)N=C1CC(C)(C)CC(O)=C1C2c1cccs1` (centres undefined), the EC50 in the experiment on Plasmodium falciparum [1] and with Plasmodium falciparum [2] was above 15 µM in each case.

On to `COc1cc(CNc2cc(Cl)ccc2C)cc(I)c1OC`, for which the values for the EC50 in the experiment on Plasmodium falciparum [1] and in the experiment on Plasmodium falciparum [2] were 3.17 µM and above 15 µM, respectively.

Take `Cc1cccc(NC(c2ccc(F)cc2)c2ccc3cccnc3c2O)n1` (centres undefined): the figures for the EC50 with Plasmodium falciparum [1] and in the experiment with Plasmodium falciparum [2] were 4.17 µM and 1.51 µM, respectively.

For the compound `COC(=O)C1C(=O)C2=C(CC1C)NC(=O)CC2c1ccc([N+](=O)[O-])cc1` (centres undefined), the EC50 was determined as 1.66 µM in the experiment on Plasmodium falciparum [1] and 3.01 µM in the experiment on Plasmodium falciparum [2].

For the compound `CCO/C(O)=C1\C(CC)=NC2=C(C(=O)CC(C)(C)C2)C1c1ccc(Cl)cc1Cl` (centres undefined), the EC50 in the experiment with Plasmodium falciparum [1] is 1.22 µM; in the experiment on Plasmodium falciparum [2] it was 1.33 µM.

In the case of `Cc1ccc(-c2nc(C(=O)N(C)Cc3cccnc3)cs2)cc1F`, the results for the EC50 in the experiment with Plasmodium falciparum [1] and in the experiment on Plasmodium falciparum [2] were 5.12 µM and 4.36 µM, respectively.

As to `CCOC(=O)c1c(CNCCN(CC)CC)n(C)c2cc(Br)c(O)cc12`, the EC50 in the experiment with Plasmodium falciparum [1] was 4.87 µM; in the experiment with Plasmodium falciparum [2] it was 2.89 µM.

With `CN1CCN(c2ccc(-c3cccc(NC(=O)c4cccc(F)c4)c3)nn2)CC1`, the EC50 in the experiment with Plasmodium falciparum [1] and with Plasmodium falciparum [2] was above 15 µM each time.

`Cc1ccc(CNC(=O)/C=C/c2ccc([N+](=O)[O-])cc2)cc1`: the EC50 with Plasmodium falciparum [1] and in the experiment with Plasmodium falciparum [2] was above 15 µM throughout.

Take `Oc1ccccc1Nc1nc(-c2cccnc2)nc2ccccc12`: the EC50 in the experiment with Plasmodium falciparum [1] was 2.1 µM; in the experiment on Plasmodium falciparum [2], above 15 µM.

Consider `OCCC1CN(Cc2c(F)cccc2F)CCN1Cc1ccc(F)cc1` (centres undefined), for which the EC50 in the experiment with Plasmodium falciparum [1] and with Plasmodium falciparum [2] was above 15 µM throughout.

Consider `O=C(Nc1ccc(Cl)c(Cl)c1)Nc1ccc(Cl)c([N+](=O)[O-])c1`, for which the EC50 with Plasmodium falciparum [1] and in the experiment on Plasmodium falciparum [2] was above 15 µM each time.

With `O=C(C1CCCCC1)N(Cc1cccnc1)c1nc2c(Cl)cccc2s1`, the EC50 in the experiment on Plasmodium falciparum [1] stood at 2.33 µM; with Plasmodium falciparum [2] it was 2.36 µM.

As for `Cc1cccc(-n2ccnc2SCC(=O)Nc2cccc(C(F)(F)F)c2)c1C`, the EC50 with Plasmodium falciparum [1] was 1.81 µM; with Plasmodium falciparum [2], 0.836 µM.

On to `Cc1cccc2sc(NNC(=O)c3ccc(S(=O)(=O)N4CCCCC4C)cc3)nc12` (centres undefined), for which the EC50 in the experiment on Plasmodium falciparum [1] and in the experiment with Plasmodium falciparum [2] was above 15 µM each time.

In the case of `Cc1ccc(Cl)cc1NC(=O)c1c(-c2c(Cl)cccc2Cl)noc1C`, the EC50 with Plasmodium falciparum [1] is 8.12 µM; with Plasmodium falciparum [2], 0.481 µM.

`CCOc1cccc(CNC2CC(C)(C)Cc3c2cnn3-c2ccc(C)cc2)c1O` (centres undefined): the figures for the EC50 in the experiment on Plasmodium falciparum [1] and in the experiment with Plasmodium falciparum [2] were 0.795 µM and 3.15 µM, respectively.

`Cc1ccc2sc(NNC(=O)c3ccc(S(=O)(=O)N(C)C)cc3)nc2c1C`: the results for the EC50 in the experiment with Plasmodium falciparum [1] and in the experiment with Plasmodium falciparum [2] were 3.82 µM and above 15 µM, respectively.

Consider `Cc1ccc(/C=N/NC(=O)COc2ccc(Cl)cc2Cl)c(O)c1`, for which the EC50 with Plasmodium falciparum [1] and in the experiment with Plasmodium falciparum [2] was above 15 µM throughout.

`CCN(CC)CCNC(=O)c1c(C)oc2c1C(=O)c1ccccc1C2=O`: the figures for the EC50 with Plasmodium falciparum [1] and in the experiment with Plasmodium falciparum [2] were 0.191 µM and 0.256 µM, respectively.

Turning to `CCn1c2c(c(=N)c3c1CCC3)CCCC2`, the values for the EC50 with Plasmodium falciparum [1] and with Plasmodium falciparum [2] were 6.57 µM and 3.12 µM, respectively.

As to `CCCC(=O)NC(c1ccccc1Cl)c1cc(Cl)c2cccnc2c1O` (centres undefined), the EC50 in the experiment on Plasmodium falciparum [1] and with Plasmodium falciparum [2] was above 15 µM throughout.

For the compound `O=C1CC(c2ccc(Cl)c(Cl)c2)C2=C(CC(c3ccc(F)cc3)CC2=O)N1` (centres undefined), the EC50 was 4.38 µM in the experiment with Plasmodium falciparum [1] and above 15 µM in the experiment on Plasmodium falciparum [2].

In the case of `c1cncc(CN2CCN(Cc3cccc4ccccc34)CC2)c1`, the EC50 with Plasmodium falciparum [1] and with Plasmodium falciparum [2] was above 15 µM each time.

Consider `COc1ccc(C(NC(=O)c2cccnc2)c2cc(Cl)c3cccnc3c2O)cc1` (centres undefined), for which the results for the EC50 with Plasmodium falciparum [1] and in the experiment on Plasmodium falciparum [2] were 1.5 µM and 4.76 µM, respectively.

With `Cc1ccc(Nc2nc(NCCO)c3ccccc3n2)cc1C`, the EC50 stood at 2.27 µM in the experiment with Plasmodium falciparum [1] and 0.843 µM in the experiment on Plasmodium falciparum [2].

As for `CC(C)(C)c1ccc(-c2nc(-c3ccncc3)no2)cc1`, the EC50 in the experiment with Plasmodium falciparum [1] and in the experiment with Plasmodium falciparum [2] was above 15 µM in each case.

Regarding `Cc1cccc(C2Sc3ccccc3N=C3C2=C(O)c2ccccc23)c1` (centres undefined), the EC50 turned out to be 1.77 µM in the experiment with Plasmodium falciparum [1] and 1.89 µM in the experiment with Plasmodium falciparum [2].

In the case of `CCCCc1ccc2nc(C)c(CN(C)C3CCN(C)CC3)c(O)c2c1`, the EC50 in the experiment with Plasmodium falciparum [1] and in the experiment with Plasmodium falciparum [2] was above 15 µM in each case.

With `CC(=O)NCC(=O)NC1CC(C)(C)Cc2c1cnn2-c1ccccc1` (centres undefined), the EC50 with Plasmodium falciparum [1] and with Plasmodium falciparum [2] was above 15 µM throughout.

For `Cc1ccccc1-n1c(N)c(C#N)c2nc3ccccc3nc21`, the 50% effective concentration (EC50) worked out at 4.25 µM in the experiment on Plasmodium falciparum [1] and 1.64 µM in the experiment on Plasmodium falciparum [2].

Take `Cc1ccc(N2C(=O)C(Cl)=C(Nc3ccccc3C)C2=O)c(C)c1`: the EC50 with Plasmodium falciparum [1] and in the experiment on Plasmodium falciparum [2] was above 15 µM in each case.

Regarding `CCc1ccc(CN2CCC(n3nccc3NC(=O)Nc3ccccc3C)CC2)cc1`, the figures for the EC50 in the experiment on Plasmodium falciparum [1] and with Plasmodium falciparum [2] were above 15 µM and 6.75 µM, respectively.

For the compound `Cc1cc(N(C)C)nc(Nc2ccc(NS(=O)(=O)c3cc(C(C)C)ccc3C)cc2)n1`, the EC50 was found to be 3.35 µM in the experiment on Plasmodium falciparum [1] and 1.55 µM in the experiment on Plasmodium falciparum [2].

Turning to `Cc1cccc(NC(c2ccccc2C)c2ccc3ccc(C)nc3c2O)n1` (centres undefined), the EC50 with Plasmodium falciparum [1] stood at 5.17 µM; in the experiment on Plasmodium falciparum [2], 7.03 µM.

With `O=C(CSc1nnc(-c2ccncc2)o1)Nc1ccccc1C(F)(F)F`, the EC50 in the experiment on Plasmodium falciparum [1] and with Plasmodium falciparum [2] was above 15 µM in each case.

Regarding `COC(=O)C1=CN(Cc2ccc(C)cc2)C=C(C(=O)OC)C1c1cc(OC)c(OC)c(OC)c1`, the results for the EC50 with Plasmodium falciparum [1] and in the experiment with Plasmodium falciparum [2] were 5.49 µM and 4.49 µM, respectively.

Turning to `CCc1cccc2c(C#N)cn(Cc3ccc(Br)cc3)c12`, the EC50 with Plasmodium falciparum [1] is 4 µM; with Plasmodium falciparum [2], 3.67 µM.

For `COc1ccc(OC)c2sc(N(Cc3cccnc3)C(=O)c3cccc(F)c3)nc12`, the EC50 in the experiment with Plasmodium falciparum [1] came out at 4.97 µM; in the experiment on Plasmodium falciparum [2], 4.1 µM.

As to `COc1ccc(C(O)(CCC(C)C)C(CN2CCOCC2)c2ccccc2)cc1` (centres undefined), the results for the EC50 in the experiment on Plasmodium falciparum [1] and with Plasmodium falciparum [2] were 3.27 µM and 3.67 µM, respectively.
